Source: patent publication US10640506B2, “Cyclobutyl substituted pyrrolopyridine and pyrrolopyrimidines derivatives as JAK inhibitors” (Incyte Corporation, priority 2010, dated 2020)

Tests used:
[1] = molecular target: T1, JAK2 (a.a. 828-1132) (Homo sapiens, UniProt O60674); assay: In vitro JAK kinase assay (HTRF, phosphorylation of biotinylated peptide), JAK2; assay type: biochemical; conditions: Table F; 1 mM ATP
T1 construct: JAK2 (a.a. 828-1132); His tag (N)
Outline: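 HTRF detection (Eu-Py20, SA-APC, 40 min) of biotinylated-peptide phosphorylation, following a 1 hour room-temperature reaction quenched with 45 mM EDTA. Enzymes: insect-cell-expressed N-terminal His-tagged JAK1 (837-1142) and JAK2 (828-1132) catalytic domains. Activities reported in ranged categories.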

[2] = molecular target: human JAK1 (a.a. 837-1142) (Homo sapiens, UniProt P23458); assay: In vitro JAK kinase assay (HTRF, phosphorylation of biotinylated peptide), JAK1; assay type: biochemical; conditions: Table F; 1 mM ATP
Outline: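 Phosphorylation of a biotinylated peptide was run at room temperature for 1 hour using the N-terminally His-tagged JAK1 kinase domain (837-1142) from insect cells. After an EDTA stop, Eu-Py20 and SA-APC gave an HTRF read; values are binned potency ranges.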

T1 sequence (O60674 828-1132): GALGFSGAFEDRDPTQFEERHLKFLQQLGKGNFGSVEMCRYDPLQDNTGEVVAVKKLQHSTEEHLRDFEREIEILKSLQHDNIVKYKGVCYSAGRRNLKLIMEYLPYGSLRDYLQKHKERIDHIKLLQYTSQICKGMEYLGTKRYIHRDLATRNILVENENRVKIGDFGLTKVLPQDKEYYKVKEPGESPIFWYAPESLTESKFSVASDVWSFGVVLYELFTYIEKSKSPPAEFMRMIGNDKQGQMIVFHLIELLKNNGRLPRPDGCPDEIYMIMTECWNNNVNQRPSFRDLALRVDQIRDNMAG
Sequence of human JAK1 (a.a. 837-1142) (P23458 849-1154): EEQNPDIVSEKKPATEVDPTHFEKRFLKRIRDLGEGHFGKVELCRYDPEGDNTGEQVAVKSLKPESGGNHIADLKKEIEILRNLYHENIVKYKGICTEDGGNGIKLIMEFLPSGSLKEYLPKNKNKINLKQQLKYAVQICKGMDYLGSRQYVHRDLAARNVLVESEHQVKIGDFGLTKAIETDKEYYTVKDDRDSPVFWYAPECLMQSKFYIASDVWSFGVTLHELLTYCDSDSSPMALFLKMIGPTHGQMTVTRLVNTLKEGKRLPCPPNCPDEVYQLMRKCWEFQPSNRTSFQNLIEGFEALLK

| SMILES | IC50 [1] [µM] | IC50 [2] [µM] |
| --- | --- | --- |
| C[C@H](NC(=O)N1CCN([C@H]2C[C@](CC#N)(n3cc(-c4ncnc5[nH]ccc45)cn3)C2)CC1)C1CC1 [Example 96, 4-{trans-3-(cyanomethyl)-3-[4-(7H-pyrrolo[2,3-d]pyrimidin-4-yl)-1H-pyrazol-1-yl]cyclobutyl}-N-[(1S)-1-cyclopropylethyl]piperazine-1-carboxamide] | 0.025 to 0.1 | < 0.01 |
| C[C@@H](NC(=O)N1CCN([C@H]2C[C@](CC#N)(n3cc(-c4ncnc5[nH]ccc45)cn3)C2)CC1)C1CC1 [Example 97, 4-{trans-3-(cyanomethyl)-3-[4-(7H-pyrrolo[2,3-d]pyrimidin-4-yl)-1H-pyrazol-1-yl]cyclobutyl}-N-[(1R)-1-cyclopropylethyl]piperazine-1-carboxamide] | 0.025 to 0.1 | < 0.01 |
| N#CC[C@]1(n2cc(-c3ncnc4[nH]ccc34)cn2)C[C@H](N2CCN(C(=O)NC3CC3)CC2)C1 [Example 98, 4-{trans-3-(cyanomethyl)-3-[4-(7H-pyrrolo[2,3-d]pyrimidin-4-yl)-1H-pyrazol-1-yl]cyclobutyl}-N-cyclopropylpiperazine-1-carboxamide] | > 0.1 | < 0.01 |
| N#CC[C@]1(n2cc(-c3ncnc4[nH]ccc34)cn2)C[C@H](N2CCN(C(=O)NC3CCC3)CC2)C1 [Example 99, 4-{trans-3-(cyanomethyl)-3-[4-(7H-pyrrolo[2,3-d]pyrimidin-4-yl)-1H-pyrazol-1-yl]cyclobutyl}-N-cyclobutylpiperazine-1-carboxamide] | 0.025 to 0.1 | < 0.01 |
| CC(C)(C)CNC(=O)N1CCN([C@H]2C[C@](CC#N)(n3cc(-c4ncnc5[nH]ccc45)cn3)C2)CC1 [Example 100, 4-{trans-3-(cyanomethyl)-3-[4-(7H-pyrrolo[2,3-d]pyrimidin-4-yl)-1H-pyrazol-1-yl]cyclobutyl}-N-(2,2-dimethylpropyl)piperazine-1-carboxamide] | > 0.1 | 0.01 to 0.025 |
| CC(C)CNC(=O)N1CCN([C@H]2C[C@](CC#N)(n3cc(-c4ncnc5[nH]ccc45)cn3)C2)CC1 [Example 101, 4-{trans-3-(cyanomethyl)-3-[4-(7H-pyrrolo[2,3-d]pyrimidin-4-yl)-1H-pyrazol-1-yl]cyclobutyl}-N-isobutylpiperazine-1-carboxamide] | 0.025 to 0.1 | < 0.01 |
| CC[C@@H](C)NC(=O)N1CCN([C@H]2C[C@](CC#N)(n3cc(-c4ncnc5[nH]ccc45)cn3)C2)CC1 [Example 102, 4-{trans-3-(cyanomethyl)-3-[4-(7H-pyrrolo[2,3-d]pyrimidin-4-yl)-1H-pyrazol-1-yl]cyclobutyl}-N-[(1R)-1-methylpropyl]piperazine-1-carboxamide] | 0.025 to 0.1 | < 0.01 |
| CC[C@H](C)NC(=O)N1CCN([C@H]2C[C@](CC#N)(n3cc(-c4ncnc5[nH]ccc45)cn3)C2)CC1 [Example 103, 4-{trans-3-(cyanomethyl)-3-[4-(7H-pyrrolo[2,3-d]pyrimidin-4-yl)-1H-pyrazol-1-yl]cyclobutyl}-N-[(1S)-1-methylpropyl]piperazine-1-carboxamide] | 0.025 to 0.1 | < 0.01 |
| N#CC[C@]1(n2cc(-c3ncnc4[nH]ccc34)cn2)C[C@@H](N2CCN(C(=O)NC3CCC3)CC2)C1 [Example 104, 4-{cis-3-(cyanomethyl)-3-[4-(7H-pyrrolo[2,3-d]pyrimidin-4-yl)-1H-pyrazol-1-yl]cyclobutyl}-N-cyclobutylpiperazine-1-carboxamide] | > 0.1 | 0.01 to 0.025 |
| CC[C@@H](C)NC(=O)N1CCN([C@H]2C[C@@](CC#N)(n3cc(-c4ncnc5[nH]ccc45)cn3)C2)CC1 [Example 105, 4-{cis-3-(cyanomethyl)-3-[4-(7H-pyrrolo[2,3-d]pyrimidin-4-yl)-1H-pyrazol-1-yl]cyclobutyl}-N-[(1R)-1-methylpropyl]piperazine-1-carboxamide] | 0.025 to 0.1 | 0.01 to 0.025 |
| CC[C@H](C)NC(=O)N1CCN([C@H]2C[C@@](CC#N)(n3cc(-c4ncnc5[nH]ccc45)cn3)C2)CC1 [Example 106, 4-{cis-3-(cyanomethyl)-3-[4-(7H-pyrrolo[2,3-d]pyrimidin-4-yl)-1H-pyrazol-1-yl]cyclobutyl}-N-[(1S)-1-methylpropyl]piperazine-1-carboxamide] | > 0.1 | 0.01 to 0.025 |
| N#CC[C@]1(n2cc(-c3ncnc4[nH]ccc34)cn2)C[C@@H](N2CCN(C(=O)NC3CC3)CC2)C1 [Example 107, 4-{cis-3-(cyanomethyl)-3-[4-(7H-pyrrolo[2,3-d]pyrimidin-4-yl)-1H-pyrazol-1-yl]cyclobutyl}-N-cyclopropylpiperazine-1-carboxamide] | > 0.1 | 0.01 to 0.025 |
| CC(C)NC(=O)N1CCN([C@H]2C[C@@](CC#N)(n3cc(-c4ncnc5[nH]ccc45)cn3)C2)CC1 [Example 108, 4-{cis-3-(cyanomethyl)-3-[4-(7H-pyrrolo[2,3-d]pyrimidin-4-yl)-1H-pyrazol-1-yl]cyclobutyl}-N-isopropylpiperazine-1-carboxamide] | > 0.1 | 0.01 to 0.025 |
| N#CC[C@]1(n2cc(-c3ncnc4[nH]ccc34)cn2)C[C@@H](N2CCN(C(=O)NC3CCCC3)CC2)C1 [Example 109, 4-{cis-3-(cyanomethyl)-3-[4-(7H-pyrrolo[2,3-d]pyrimidin-4-yl)-1H-pyrazol-1-yl]cyclobutyl}-N-cyclopentylpiperazine-1-carboxamide] | 0.025 to 0.1 | < 0.01 |
| CC(C)[C@@H](C)NC(=O)N1CCN([C@H]2C[C@@](CC#N)(n3cc(-c4ncnc5[nH]ccc45)cn3)C2)CC1 [Example 110, 4-{cis-3-(cyanomethyl)-3-[4-(7H-pyrrolo[2,3-d]pyrimidin-4-yl)-1H-pyrazol-1-yl]cyclobutyl}-N-[(1R)-1,2-dimethylpropyl]piperazine-1-carboxamide] | > 0.1 | < 0.01 |
| CC(C)[C@H](C)NC(=O)N1CCN([C@H]2C[C@@](CC#N)(n3cc(-c4ncnc5[nH]ccc45)cn3)C2)CC1 [Example 111, 4-{cis-3-(cyanomethyl)-3-[4-(7H-pyrrolo[2,3-d]pyrimidin-4-yl)-1H-pyrazol-1-yl]cyclobutyl}-N-[(1S)-1,2-dimethylpropyl]piperazine-1-carboxamide] | > 0.1 | 0.01 to 0.025 |

The next lines start with the values.

| IC50 [1] [µM] | IC50 [2] [µM] | SMILES |
| --- | --- | --- |
| 0.025 to 0.1 | 0.01 to 0.025 | CNC(=O)N1CCN([C@H]2C[C@](CC#N)(n3cc(-c4ncnc5[nH]ccc45)cn3)C2)CC1 [Example 112, 4-{trans-3-(cyanomethyl)-3-[4-(7H-pyrrolo[2,3-d]pyrimidin-4-yl)-1H-pyrazol-1-yl]cyclobutyl}-N-methylpiperazine-1-carboxamide] |
| > 0.1 | < 0.01 | C[C@@H](NC(=O)N1CCN([C@H]2C[C@](CC#N)(n3cc(-c4ncnc5[nH]ccc45)cn3)C2)CC1)C(F)(F)F [Example 113, 4-{trans-3-(cyanomethyl)-3-[4-(7H-pyrrolo[2,3-d]pyrimidin-4-yl)-1H-pyrazol-1-yl]cyclobutyl}-N-[(1R)-2,2,2-trifluoro-1-methylethyl]piperazine-1-carboxamide] |
| > 0.1 | < 0.01 | C[C@H](NC(=O)N1CCN([C@H]2C[C@](CC#N)(n3cc(-c4ncnc5[nH]ccc45)cn3)C2)CC1)C(F)(F)F [Example 114, 4-{trans-3-(cyanomethyl)-3-[4-(7H-pyrrolo[2,3-d]pyrimidin-4-yl)-1H-pyrazol-1-yl]cyclobutyl}-N-[(1S)-2,2,2-trifluoro-1-methylethyl]piperazine-1-carboxamide] |
| > 0.1 | < 0.01 | CC[C@H](NC(=O)N1CCN([C@H]2C[C@](CC#N)(n3cc(-c4ncnc5[nH]ccc45)cn3)C2)CC1)C(F)(F)F [Example 115, 4-{trans-3-(cyanomethyl)-3-[4-(7H-pyrrolo[2,3-d]pyrimidin-4-yl)-1H-pyrazol-1-yl]cyclobutyl}-N-[(1S)-1-(trifluoromethyl)propyl]piperazine-1-carboxamide] |
| > 0.1 | 0.025 to 0.1 | N#CC[C@]1(n2cc(-c3ncnc4[nH]ccc34)cn2)C[C@H](N2CCN(C(=O)N3CCC[C@@H]3C(F)(F)F)CC2)C1 [Example 116, [trans-1-[4-(7H-pyrrolo[2,3-d]pyrimidin-4-yl)-1H-pyrazol-1-yl]-3-(4-{[(2R)-2-(trifluoromethyl)pyrrolidin-1-yl]carbonyl}piperazin-1-yl)cyclobutyl]acetonitrile] |
| > 0.1 | 0.025 to 0.1 | N#CC[C@]1(n2cc(-c3ncnc4[nH]ccc34)cn2)C[C@H](N2CCN(C(=O)N3CCC[C@H]3C(F)(F)F)CC2)C1 [Example 117, [trans-1-[4-(7H-pyrrolo[2,3-d]pyrimidin-4-yl)-1H-pyrazol-1-yl]-3-(4-{[(2S)-2-(trifluoromethyl)pyrrolidin-1-yl]carbonyl}piperazin-1-yl)cyclobutyl]acetonitrile] |
| 0.025 to 0.1 | 0.01 to 0.025 | CN(C)/C(=N\C#N)N1CCN([C@H]2C[C@](CC#N)(n3cc(-c4ncnc5[nH]ccc45)cn3)C2)CC1 [Example 118, N′-cyano-4-{trans-3-(cyanomethyl)-3-[4-(7H-pyrrolo[2,3-d]pyrimidin-4-yl)-1H-pyrazol-1-yl]cyclobutyl}-N,N-dimethylpiperazine-1-carboximidamide] |
| 0.01 to 0.025 | < 0.01 | CS(=O)(=O)N1CCN([C@H]2C[C@](CC#N)(n3cc(-c4ncnc5[nH]ccc45)cn3)C2)CC1 [Example 119, {trans-3-[4-(methylsulfonyl)piperazin-1-yl]-1-[4-(7H-pyrrolo[2,3-d]pyrimidin-4-yl)-1H-pyrazol-1-yl]cyclobutyl}acetonitrile] |
